“And” between values parts separate entries of the source, which are not always exact repeats. Equal entries are not always repeated.
Test system: 883617-216-R-J1-PDC complex spheroid viability
Test: Anticancer human tumor 883617-216-R-J1-PDC patient-derived bladder carcinoma cell line growth inhibition
Conditions: for viability, T/C: stronger effect = lower value
Procedure, shortened: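 Complex spheroids of tumor cells with HUVEC and human MSCs, exposed to iadademstat combined with other agents. Each agent tested in half-log steps from near clinical Cmax (else 10 microM top), DMSO ≤0.25%.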

[1] = curve of first compound, second compound 0.1 µM
[2] = curve of first compound, second compound 0.316 µM
[3] = curve of first compound, second compound 1 µM
[4] = curve of first compound, second compound 3.16 µM
[5] = curve of first compound, second compound 10 µM
[6] = second compound 0.1 µM, first compound 0.00316 µM
[7] = second compound 0.1 µM, first compound 0.01 µM
[8] = second compound 0.1 µM, first compound 0.0316 µM
[9] = second compound 0.1 µM, first compound 0.1 µM
[10] = second compound 0.316 µM, first compound 0.00316 µM
[11] = second compound 0.316 µM, first compound 0.01 µM
[12] = second compound 0.316 µM, first compound 0.0316 µM
[13] = second compound 0.316 µM, first compound 0.1 µM
[14] = second compound 1 µM, first compound 0.00316 µM
[15] = second compound 1 µM, first compound 0.01 µM
[16] = second compound 1 µM, first compound 0.0316 µM
[17] = second compound 1 µM, first compound 0.1 µM
[18] = second compound 3.16 µM, first compound 0.00316 µM
[19] = second compound 3.16 µM, first compound 0.01 µM
[20] = second compound 3.16 µM, first compound 0.0316 µM
[21] = second compound 3.16 µM, first compound 0.1 µM
[22] = second compound 10 µM, first compound 0.00316 µM
[23] = second compound 10 µM, first compound 0.01 µM
[24] = second compound 10 µM, first compound 0.0316 µM
[25] = second compound 10 µM, first compound 0.1 µM
[26] = second compound 0.1 µM, first compound 0.316 µM
[27] = second compound 0.1 µM, first compound 1 µM
[28] = second compound 0.316 µM, first compound 0.316 µM
[29] = second compound 0.316 µM, first compound 1 µM
[30] = second compound 1 µM, first compound 0.316 µM
[31] = second compound 1 µM, first compound 1 µM
[32] = second compound 3.16 µM, first compound 0.316 µM
[33] = second compound 3.16 µM, first compound 1 µM
[34] = second compound 10 µM, first compound 0.316 µM
[35] = second compound 10 µM, first compound 1 µM
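Further: exposure lasted seven days after three days of spheroid growth.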
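Wherever viability, T/C is given: 100% = DMSO vehicle control luminescence.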

Compound | IC50 [1] [nM] | IC50 [2] [nM] | IC50 [3] [nM] | IC50 [4] [nM] | IC50 [5] [nM] | viability, T/C [6] [%] | viability, T/C [7] [%] | viability, T/C [8] [%] | viability, T/C [9] [%] | viability, T/C [10] [%] | viability, T/C [11] [%] | viability, T/C [12] [%] | viability, T/C [13] [%] | viability, T/C [14] [%] | viability, T/C [16] [%] | viability, T/C [17] [%] | viability, T/C [20] [%] | viability, T/C [21] [%] | viability, T/C [24] [%] | viability, T/C [25] [%] | further results
CC[C@@]1(O)C(=O)OCc2c1cc1n(c2=O)Cc2cc3c(CN(C)C)c(O)ccc3nc2-1 + NC1CCC(NC2CC2c2ccccc2)CC1 | 4.71 | 5.7 | 6.31 | 6.47 | 7.25 | 55.2 | 38.9 | 33.8 | 28.5 | 62.5 | 42.6 | 30.9 | 32.4 | 57.4 | 36.2 | 26.9 | 35.4 | 28.8 | 36.7 | 28.6 | viability, T/C (second compound 0.1 µM, first compound 0.000316 µM): 94.9%; viability, T/C (second compound 0.1 µM, first compound 0.001 µM): 85.8%; viability, T/C (second compound 0.316 µM, first compound 0.000316 µM): 103%; viability, T/C (second compound 0.316 µM, first compound 0.001 µM): 104%; viability, T/C (second compound 1 µM, first compound 0.000316 µM): 93.7%; viability, T/C (second compound 1 µM, first compound 0.001 µM): 87.2%; viability, T/C [15]: 44.2%; viability, T/C (second compound 3.16 µM, first compound 0.000316 µM): 95.8%; viability, T/C (second compound 3.16 µM, first compound 0.001 µM): 86.1%; viability, T/C [18]: 61.3%; viability, T/C [19]: 42.5%; viability, T/C (second compound 10 µM, first compound 0.000316 µM): 99.3%; viability, T/C (second compound 10 µM, first compound 0.001 µM): 98.2%; viability, T/C [22]: 74.7%; viability, T/C [23]: 40%
CC(C)CC(NC(=O)CNC(=O)c1cc(Cl)ccc1Cl)B1OC(=O)CC(CC(=O)O)(C(=O)O)O1 (configuration not stated) | – | – | – | – | – | – | – | – | – | – | – | – | – | – | – | – | – | – | – | – | viability, T/C (compound 0.000316 µM): 101% and 95.7%; viability, T/C (compound 0.001 µM): 106% and 87%; viability, T/C (compound 0.00316 µM): 85% and 52.1%; viability, T/C (compound 0.01 µM): 39.5% and 23.1%; viability, T/C (compound 0.0316 µM): 15.8% and 1.76%; viability, T/C (compound 0.1 µM): 2.31% and 0.36%; IC50 (curve of compound): 7.91 nM and 3.68 nM
COc1cc(Nc2ncc3c(n2)-c2ccc(Cl)cc2C(c2c(F)cccc2OC)=NC3)ccc1C(=O)O + NC1CC1c1ccc(-c2cccc(O)c2)cc1 | 30.4 | 30.5 | 20.6 | 18.8 | 16.9 | 92.4 | 76.6 | 48.8 | 37.8 | 109 | 67.8 | 52.6 | 37.6 | 106 | 43.2 | 39.7 | 38.8 | 37.2 | 46.3 | 31.6 | viability, T/C [26]: 37.3%; viability, T/C [27]: 33.4%; viability, T/C [28]: 36.7%; viability, T/C [29]: 36%; viability, T/C [15]: 60.9%; viability, T/C [30]: 34.5%; viability, T/C [31]: 36.5%; viability, T/C [18]: 81.8%; viability, T/C [19]: 63.1%; viability, T/C [32]: 36.6%; viability, T/C [33]: 31.5%; viability, T/C [22]: 72.7%; viability, T/C [23]: 54.7%; viability, T/C [34]: 35.1%; viability, T/C [35]: 32.6%
CC1COCCN1c1cc(-c2ccnn2C)c2ccnc(-c3ccn[nH]3)c2n1 (configuration not stated) + NC1CC1c1ccc(-c2cccc(O)c2)cc1 | 7.65 | 8.14 | 8.58 | 4.73 | 3.73 | 56.5 | 49.9 | 37.2 | 29.1 | 63.4 | 45.9 | 35.3 | 32.7 | 60.1 | 32.8 | 29.1 | 30.3 | 26.6 | 27.6 | 25 | viability, T/C [26]: 24.6%; viability, T/C [27]: 18.8%; viability, T/C [28]: 26%; viability, T/C [29]: 21%; viability, T/C [15]: 49.8%; viability, T/C [30]: 23.1%; viability, T/C [31]: 20.4%; viability, T/C [18]: 56.6%; viability, T/C [19]: 37.8%; viability, T/C [32]: 23.2%; viability, T/C [33]: 19.4%; viability, T/C [22]: 51.2%; viability, T/C [23]: 41.9%; viability, T/C [34]: 22.6%; viability, T/C [35]: 19.7%
CC1COCCN1c1cc(C2(S(C)(=N)=O)CC2)nc(-c2ccnc3[nH]ccc23)n1 (configuration not stated) + NC1CCC(NC2CC2c2ccccc2)CC1 | 1050 | 1130 | 1080 | 1350 | 1520 | – | – | 106 | 103 | – | – | 99.9 | 101 | – | 101 | 101 | 100 | 93 | 106 | 92.7 | viability, T/C [26]: 78.9%; viability, T/C [27]: 50.2%; viability, T/C (second compound 0.1 µM, first compound 3.16 µM): 43.9%; viability, T/C (second compound 0.1 µM, first compound 10 µM): 36.9%; viability, T/C [28]: 77.7%; viability, T/C [29]: 51.8%; viability, T/C (second compound 0.316 µM, first compound 3.16 µM): 39.7%; viability, T/C (second compound 0.316 µM, first compound 10 µM): 33%; viability, T/C [30]: 70.8%; viability, T/C [31]: 53.7%; viability, T/C (second compound 1 µM, first compound 3.16 µM): 39%; viability, T/C (second compound 1 µM, first compound 10 µM): 34.5%; viability, T/C [32]: 75.4%; viability, T/C [33]: 52.9%; viability, T/C (second compound 3.16 µM, first compound 3.16 µM): 40.6%; viability, T/C (second compound 3.16 µM, first compound 10 µM): 31.5%; viability, T/C [34]: 78.8%; viability, T/C [35]: 52%; viability, T/C (second compound 10 µM, first compound 3.16 µM): 43.8%; viability, T/C (second compound 10 µM, first compound 10 µM): 34.9%
